Data as given in PMC4619705 (PLoS ONE, 2015).
“Also recorded” adds a separate entry of the source.

How the values were obtained:
Format in all cases: cell-based
α2β3 GABAARs = molecular target: T1, α2β3 GABAARs (Homo sapiens, UniProt P28472+P47869); assay: Two-electrode voltage clamp of binary α2β3 GABAARs expressed in Xenopus oocytes
T1 construct: expressed in transfected cells; host or cells: Xenopus laevis oocytes injected with capped mRNA, α2:β3 20:1
T1 sequence (P47869 29-451): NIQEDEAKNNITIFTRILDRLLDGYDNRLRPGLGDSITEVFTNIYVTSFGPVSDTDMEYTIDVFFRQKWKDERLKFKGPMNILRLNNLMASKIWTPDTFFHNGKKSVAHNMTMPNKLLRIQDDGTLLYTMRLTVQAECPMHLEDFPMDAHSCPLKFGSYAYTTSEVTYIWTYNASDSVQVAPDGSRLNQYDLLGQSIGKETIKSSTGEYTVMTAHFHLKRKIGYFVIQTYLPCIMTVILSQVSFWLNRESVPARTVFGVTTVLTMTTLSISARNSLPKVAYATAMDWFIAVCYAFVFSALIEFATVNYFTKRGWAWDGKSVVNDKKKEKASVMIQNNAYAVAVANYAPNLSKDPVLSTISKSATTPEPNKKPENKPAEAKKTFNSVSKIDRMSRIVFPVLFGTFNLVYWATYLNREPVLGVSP
T1 sequence (P28472 26-473): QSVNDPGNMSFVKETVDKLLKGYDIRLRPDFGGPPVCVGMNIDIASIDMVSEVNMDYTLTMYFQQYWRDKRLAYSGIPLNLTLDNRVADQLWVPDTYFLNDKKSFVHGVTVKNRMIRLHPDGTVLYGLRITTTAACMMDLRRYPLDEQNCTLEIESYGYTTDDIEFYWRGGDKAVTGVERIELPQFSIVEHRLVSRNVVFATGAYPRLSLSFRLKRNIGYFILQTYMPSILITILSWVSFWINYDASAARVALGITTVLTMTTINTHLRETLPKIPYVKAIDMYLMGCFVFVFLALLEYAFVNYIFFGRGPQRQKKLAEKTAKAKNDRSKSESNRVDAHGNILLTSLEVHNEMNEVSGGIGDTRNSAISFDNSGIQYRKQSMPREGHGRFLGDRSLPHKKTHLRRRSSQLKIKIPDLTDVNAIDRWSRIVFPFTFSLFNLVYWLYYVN
Source text: (§1) Human complementary DNA (cDNA) of GABAAR α2 subunit (vector: pCMV6-XL5) was purchased from OriGene Technologies (Rockville, MD, USA), and the human β3 (vector: pGEMHE) and γ2L (vector: pCDM8) subunits were generous gifts from Dr. Bjarke Ebert (H. Lundbeck A/S, Valby, Denmark) and Dr. Paul Whiting (Merck, Sharp and Dohme Research Laboratories, Harlow, Essex, UK) respectively. […] Plasmid vectors with the cDNA incorporated were linearised using appropriate restriction endonucleases (α2: SmaI; β3: NheI; γ2L: NotI). Capped RNA transcripts were synthesised from linearised plasmids using the mMessage mMachine T7 transcript kit from Ambion (Austin, TX, USA). Purified messenger RNA (mRNA) was dissolved in nuclease-free water (Ambion, Austin, TX, USA), and its quality was assessed using 1% agarose gel electrophoresis. The concentration of each subunit mRNA was measured using Nanodrop ND-100 UV-Vis spectrophotometer (Thermo Fisher Scientific, North Ryde, NSW, Australia).
(§2) Various combinations of α2, β3 and γ2L subunit mRNAs were mixed to different ratios as stated in the text, and diluted accordingly to a concentration of 5 ng/μL (unless otherwise stated). […] Injected oocytes were stored in ND96 storage solution supplemented with 50 μg/mL gentamycin and tetracycline at 18°C. Two-electrode voltage clamp recordings were performed on oocytes 2–4 days post-injection at room temperature (20–25°C) using a GeneClamp 500B amplifier (ADInstruments, Sydney, NSW, Australia) or a Warner OC-725C Oocyte Clamp (Warner Instrument Corp, Hamden, CT, USA). All experiments were conducted at a holding potential of –60 mV, and data were acquired with a PowerLab 2/25, and LabChart (version 5.0.2) software (ADInstruments, Sydney, NSW, Australia). The recording microelectrodes (0.2–1.1 MΩ) were generated from capillary glass (Harvard Apparatus, Holliston, MA, USA) using a single-stage glass microelectrode puller (Narishige, Tokyo, Japan), and were filled with 3 M KCl solution. The perfusion system was built using a series of polycarbonate, high-density polyethylene two-way stopcocks (Qosina, Edgewood, NY, USA), connected through tubing to the recording chamber (100 μL), where the oocyte was continuously perfused with ND96 recording solution (96 mM NaCl, 2 mM KCl, 1 mM MgCl2, 1.8 mM CaCl2, 5 mM HEPES hemisodium; pH 7.4) at an approximate rate of 5 mL/min.
(§3) Perfusates containing these chemicals were made up fresh before each application. The concentration-response curves of agonists were obtained by exposing oocytes to increasing concentrations of agonists until the currents peaked. […] All experiments were performed using at least two different batches of oocytes.
(§4) Prism (version 5.04; GraphPad Software, La Jolla, CA, USA) was used for data analysis.
(§5) In all cases, we constrained the bottom to 0, and when fitting data to the biphasic model, the Hill slopes were constrained to 1. Statistical comparisons of results for different injection ratios of β3γ2L receptors were performed using ANOVA with Tukey’s post-hoc test. When comparing results from different injection ratios of β3γ2L receptors with α2β3γ2L receptors, the ANOVA Dunnett’s test was used. Pairwise comparisons were performed using Student’s t test. Statistical significance was attained at p < 0.05.

γ2L homomeric receptors = molecular target: T2, γ2L homomeric receptors (Homo sapiens, UniProt P18507); assay: Two-electrode voltage clamp of γ2L homomeric receptors expressed in Xenopus oocytes; conditions: γ2L alone
T2 construct: expressed in transfected cells; host or cells: Xenopus laevis oocytes injected with γ2L mRNA alone (high amounts)
T2 sequence (P18507 40-475): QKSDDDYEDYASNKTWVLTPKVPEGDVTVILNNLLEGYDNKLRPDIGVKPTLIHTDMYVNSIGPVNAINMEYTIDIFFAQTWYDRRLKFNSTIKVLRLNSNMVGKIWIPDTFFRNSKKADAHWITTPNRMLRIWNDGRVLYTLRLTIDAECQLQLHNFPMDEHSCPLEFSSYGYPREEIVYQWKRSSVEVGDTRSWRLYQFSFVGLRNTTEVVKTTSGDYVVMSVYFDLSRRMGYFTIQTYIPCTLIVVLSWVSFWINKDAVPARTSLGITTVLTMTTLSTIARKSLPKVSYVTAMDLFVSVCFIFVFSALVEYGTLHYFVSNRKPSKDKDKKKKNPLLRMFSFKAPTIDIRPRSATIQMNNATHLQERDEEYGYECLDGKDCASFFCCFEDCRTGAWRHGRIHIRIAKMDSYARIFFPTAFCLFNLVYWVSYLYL
Source text: as §1, §2, §3

β3 homomeric receptors = molecular target: T3, β3 homomeric receptors (Homo sapiens, UniProt P28472); assay: Two-electrode voltage clamp of β3 homomeric receptors expressed in Xenopus oocytes
T3 construct: expressed in transfected cells; host or cells: Xenopus laevis oocytes injected with β3 mRNA (5 ng/oocyte)
T3 sequence (P28472 26-473): T1 sequence (P28472 26-473)
Source text: as §1, §2, §3
Prism (version 5.04; GraphPad Software, La Jolla, CA, USA) was used for data analysis. […]

α2γ2L receptors = molecular target: T4, α2γ2L receptors (Homo sapiens, UniProt P18507+P47869); assay: Two-electrode voltage clamp of binary α2γ2L receptors expressed in Xenopus oocytes
T4 construct: expressed in transfected cells; host or cells: Xenopus laevis oocytes injected with α2 and γ2L mRNAs
T4 sequence (P18507 40-475, one chain of several): as the sequence (P18507 40-475) above
Source text: as §1, §2, §3

homomeric α2 GABAARs = molecular target: T5, homomeric α2 GABAARs (Homo sapiens, UniProt P47869); assay: Two-electrode voltage clamp of oocytes injected with α2 mRNA alone
T5 construct: expressed in transfected cells; host or cells: Xenopus laevis oocytes injected with α2 mRNA alone (28–35 ng/oocyte)
T5 sequence (P47869 29-451): T1 sequence (P47869 29-451)
Source text: as §1
Various combinations of α2, β3 and γ2L subunit mRNAs were mixed to different ratios as stated in the text, and diluted accordingly to a concentration of 5 ng/μL (unless otherwise stated). […] Injected oocytes were stored in ND96 storage solution supplemented with 50 μg/mL gentamycin and tetracycline at 18°C. […]

α2β3γ2L GABAARs = molecular target: T6, α2β3γ2L GABAARs (Homo sapiens, UniProt P18507+P28472+P47869); assay: Two-electrode voltage clamp of recombinant α2β3γ2L GABAARs expressed in Xenopus oocytes
T6 construct: expressed in transfected cells; host or cells: Xenopus laevis oocytes injected with capped mRNA, α2:β3:γ2L 3:1:3
T6 sequence (P18507 40-475, one chain of several): as the sequence (P18507 40-475) above
Source text: as §1, §2, §3, §4, §5

| SMILES | Expression level (current response elicited by GABA) (α2β3 GABAARs; α2β3 20:1, 5 ng mRNA, 3 mM GABA, -60 mV) [nA] | Expression level (current response elicited by GABA) (γ2L homomeric receptors; 20–35 ng mRNA/oocyte, 60 mM GABA, -60 mV) | Expression level (current response elicited by GABA) (β3 homomeric receptors; β3 alone, 5 ng mRNA/oocyte, 60 mM GABA, -60 mV) [nA] | Expression level (current response elicited by GABA) (α2γ2L receptors; α2γ2L 1:1, 5 ng mRNA, 60 mM GABA, -60 mV) | Expression level (current response elicited by GABA) (homomeric α2 GABAARs; 28–35 ng mRNA/oocyte, 60 mM GABA, -60 mV) | Expression level (current response elicited by GABA) (α2β3γ2L GABAARs; α2β3γ2L 3:1:3, 3 mM GABA) [nA] | 2’MeO6MF activity (α2β3 GABAARs; α2β3 20:1, 100 μM) | Elicited current, % of the 3 mM GABA responses (α2β3 GABAARs; α2β3 20:1, 100 μM ligand) [%] | Enhancement of GABA current (co-application) (α2β3 GABAARs; α2β3 20:1, GABA EC3–10 + 100 or 300 μM ligand, data not shown) | 2’MeO6MF activity (γ2L homomeric receptors; 100 μM) | 2’MeO6MF activity (β3 homomeric receptors; β3 alone, 3–300 μM) | Maximal inhibition of constitutive activity (normalised against oocyte holding current) (β3 homomeric receptors; β3 homomers, 300 μM ligand) [%] | 2’MeO6MF activity (α2γ2L receptors; α2γ2L 1:1, 100 μM) | 2’MeO6MF activity (homomeric α2 GABAARs; 100 μM) | EC50 (α2β3γ2L GABAARs) [µM] | 2’MeO6MF activity (α2β3γ2L GABAARs; α2β3γ2L 3:1:3) | Direct activation, % of the 3 mM GABA response (α2β3γ2L GABAARs; α2β3γ2L 3:1:3, 300 μM ligand, mean ± SEM) [%] | Enhancement of GABA current (co-application) (α2β3γ2L GABAARs; α2β3γ2L 3:1:3, GABA EC3–10 + 100 or 300 μM ligand, data not shown) |
| --- | --- | --- | --- | --- | --- | --- | --- | --- | --- | --- | --- | --- | --- | --- | --- | --- | --- | --- |
| NCCCC(=O)O [GABA, γ-aminobutyric acid] | 1100 ± 220 | not sensitive; also recorded: not responsive; also recorded: No current | 290 ± 67 | no function; also recorded: No current | did not detect function; also recorded: No current | 4300 ± 940 |  |  |  |  |  |  |  |  |  |  |  |  |
| COc1ccccc1-c1cc(=O)c2cc(C)ccc2o1 [2’MeO6MF, 2’-methoxy-6-methylflavone] |  |  |  |  |  |  | lack of activity; also recorded: Insignificant activation | 1.7 ± 0.35 | No enhancement | not sensitive; also recorded: not responsive; also recorded: No current | Inverse agonism | 54 ± 3.0 | no function; also recorded: No current | did not detect function; also recorded: No current | ~74 | Activation | 8.2 ± 3.6 | No enhancement |
